Source: patent publication US10206394B2, “Herbicidal compounds” (Syngenta Participations AG, priority 2014, dated 2019)
Where two headings read alike, the source gives them in different places.

Experiments:
Assay in all cases: Glasshouse assay for herbicidal activity (pre- and post-emergence), percentage phytotoxicity
Type in all cases: in vivo
Avena fatua (AVEFA) = details: Avena fatua
In short: (§1)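 Pot-grown plants treated one day after sowing (pre-emergence) or at about 12 days (post-emergence); glasshouse at 24/18° C (warm) or 20/16° C (cool species) day/night, 16 h light, 65% humidity. Visual % phytotoxicity (0 = none, 100 = total damage) scored at 15 DAA post or 20 DAA pre.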

[1] = test system: Echinochloa crus-galli (ECHCG); details: Echinochloa crus-galli
In short: as §1

Lolium perenne (LOLPE) = details: Lolium perenne
In short: as §1

[2] = test system: Alopecurus myosuroides (ALOMY); details: Alopecurus myosuroides
In short: as §1

[3] = post-emergence, 360 h, Rate 250 g/ha, post-emergence, visual assessment 15 DAA, 100%=total damage, 0%=no damage, read-out: Post-emergence herbicidal activity (percentage phytotoxicity) AVEFA POST
[4] = pre-emergence, 480 h, Rate 250 g/ha, pre-emergence, visual assessment 20 DAA, 100%=total damage, 0%=no damage, read-out: Pre-emergence herbicidal activity (percentage phytotoxicity) AVEFA PRE
[5] = post-emergence, 360 h, Rate 250 g/ha, post-emergence, visual assessment 15 DAA, 100%=total damage, 0%=no damage, read-out: Post-emergence herbicidal activity (percentage phytotoxicity) ECHCG POST
[6] = pre-emergence, 480 h, Rate 250 g/ha, pre-emergence, visual assessment 20 DAA, 100%=total damage, 0%=no damage, read-out: Pre-emergence herbicidal activity (percentage phytotoxicity) ECHCG PRE
[7] = post-emergence, 360 h, Rate 250 g/ha, post-emergence, visual assessment 15 DAA, 100%=total damage, 0%=no damage, read-out: Post-emergence herbicidal activity (percentage phytotoxicity) LOLPE POST
[8] = pre-emergence, 480 h, Rate 250 g/ha, pre-emergence, visual assessment 20 DAA, 100%=total damage, 0%=no damage, read-out: Pre-emergence herbicidal activity (percentage phytotoxicity) LOLPE PRE
[9] = post-emergence, 360 h, Rate 250 g/ha, post-emergence, visual assessment 15 DAA, 100%=total damage, 0%=no damage, read-out: Post-emergence herbicidal activity (percentage phytotoxicity) ALOMY POST
[10] = pre-emergence, 480 h, Rate 250 g/ha, pre-emergence, visual assessment 20 DAA, 100%=total damage, 0%=no damage, read-out: Pre-emergence herbicidal activity (percentage phytotoxicity) ALOMY PRE
[11] = post-emergence, 360 h, Rate 250 g/ha, post-emergence, assessed visually 15 DAA, 100%=total damage, 0%=no damage, read-out: Post-emergence herbicidal activity (percentage phytotoxicity) AVEFA POST
[12] = pre-emergence, 480 h, Rate 250 g/ha, pre-emergence, assessed visually 20 DAA, 100%=total damage, 0%=no damage, read-out: Pre-emergence herbicidal activity (percentage phytotoxicity) AVEFA PRE
[13] = post-emergence, 360 h, Rate 250 g/ha, post-emergence, assessed visually 15 DAA, 100%=total damage, 0%=no damage, read-out: Post-emergence herbicidal activity (percentage phytotoxicity) ECHCG POST
[14] = pre-emergence, 480 h, Rate 250 g/ha, pre-emergence, assessed visually 20 DAA, 100%=total damage, 0%=no damage, read-out: Pre-emergence herbicidal activity (percentage phytotoxicity) ECHCG PRE
[15] = post-emergence, 360 h, Rate 250 g/ha, post-emergence, assessed visually 15 DAA, 100%=total damage, 0%=no damage, read-out: Post-emergence herbicidal activity (percentage phytotoxicity) LOLPE POST
[16] = pre-emergence, 480 h, Rate 250 g/ha, pre-emergence, assessed visually 20 DAA, 100%=total damage, 0%=no damage, read-out: Pre-emergence herbicidal activity (percentage phytotoxicity) LOLPE PRE
[17] = post-emergence, 360 h, Rate 250 g/ha, post-emergence, assessed visually 15 DAA, 100%=total damage, 0%=no damage, read-out: Post-emergence herbicidal activity (percentage phytotoxicity) ALOMY POST
[18] = pre-emergence, 480 h, Rate 250 g/ha, pre-emergence, assessed visually 20 DAA, 100%=total damage, 0%=no damage, read-out: Pre-emergence herbicidal activity (percentage phytotoxicity) ALOMY PRE

SMILES | pest or weed control at 250 g/ha (Avena fatua (AVEFA); [3]) [%] | pest or weed control at 250 g/ha (Avena fatua (AVEFA); [4]) [%] | pest or weed control at 250 g/ha [1, 5] [%] | pest or weed control at 250 g/ha [1, 6] [%] | pest or weed control at 250 g/ha (Lolium perenne (LOLPE); [7]) [%] | pest or weed control at 250 g/ha (Lolium perenne (LOLPE); [8]) [%] | pest or weed control at 250 g/ha [2, 9] [%] | pest or weed control at 250 g/ha [2, 10] [%] | pest or weed control at 250 g/ha (Avena fatua (AVEFA); [11]) [%] | pest or weed control at 250 g/ha (Avena fatua (AVEFA); [12]) [%] | pest or weed control at 250 g/ha [1, 13] [%] | pest or weed control at 250 g/ha [1, 14] [%] | pest or weed control at 250 g/ha (Lolium perenne (LOLPE); [15]) [%] | pest or weed control at 250 g/ha (Lolium perenne (LOLPE); [16]) [%] | pest or weed control at 250 g/ha [2, 17] [%] | pest or weed control at 250 g/ha [2, 18] [%] | further results
C=CC(C)NC(=O)CC1CC(=O)C(c2c(C)cc(-c3ncc(Cl)cn3)cc2C)C1=O (stereo not drawn) [Compound B345] | 100 | 90 | 100 | 100 | 100 | 100 | 100 | 100 | – | – | – | – | – | – | – | – | –
Cc1cc(-n2cc(Cl)cn2)cc(C)c1C1C(=O)CC(CC(=O)NC(C)C)C1=O (stereo not drawn) [Compound A74] | – | – | – | – | – | – | – | – | 100 | 90 | 100 | 100 | 90 | 90 | 100 | 100 | –
Cc1cc(-c2ccc(Cl)cn2)cc(C)c1C1C(=O)CC(CC(=O)N(C)Cc2cccc(F)c2)C1=O (stereo not drawn) [Compound B358] | 100 | 100 | 100 | 100 | 90 | 90 | 100 | 90 | – | – | – | – | – | – | – | – | –
CCc1cc(-n2cc(Cl)cn2)cc(C)c1C1C(=O)CC(CC(=O)NCc2cccc(F)c2)C1=O (stereo not drawn) [Compound B232] | – | – | – | – | – | – | – | – | – | – | – | – | – | – | – | – | pest or weed control at 250 g/ha (Avena fatua (AVEFA); post-emergence, 360 h, POST-emergence, rate 250 g/ha, visual score 15 DAA (100%=total damage, 0%=no damage), read-out: Post-emergence herbicidal activity (percentage phytotoxicity) AVEFA POST): 100%; pest or weed control at 250 g/ha (Avena fatua (AVEFA); pre-emergence, 480 h, PRE-emergence, rate 250 g/ha, visual score 20 DAA (100%=total damage, 0%=no damage), read-out: Pre-emergence herbicidal activity (percentage phytotoxicity) AVEFA PRE): 70%; pest or weed control at 250 g/ha ([1]; post-emergence, 360 h, POST-emergence, rate 250 g/ha, visual score 15 DAA (100%=total damage, 0%=no damage), read-out: Post-emergence herbicidal activity (percentage phytotoxicity) ECHCG POST): 100%; pest or weed control at 250 g/ha ([1]; pre-emergence, 480 h, PRE-emergence, rate 250 g/ha, visual score 20 DAA (100%=total damage, 0%=no damage), read-out: Pre-emergence herbicidal activity (percentage phytotoxicity) ECHCG PRE): 90%; pest or weed control at 250 g/ha (Lolium perenne (LOLPE); post-emergence, 360 h, POST-emergence, rate 250 g/ha, visual score 15 DAA (100%=total damage, 0%=no damage), read-out: Post-emergence herbicidal activity (percentage phytotoxicity) LOLPE POST): 100%; pest or weed control at 250 g/ha (Lolium perenne (LOLPE); pre-emergence, 480 h, PRE-emergence, rate 250 g/ha, visual score 20 DAA (100%=total damage, 0%=no damage), read-out: Pre-emergence herbicidal activity (percentage phytotoxicity) LOLPE PRE): 90%; pest or weed control at 250 g/ha ([2]; post-emergence, 360 h, POST-emergence, rate 250 g/ha, visual score 15 DAA (100%=total damage, 0%=no damage), read-out: Post-emergence herbicidal activity (percentage phytotoxicity) ALOMY POST): 100%; pest or weed control at 250 g/ha ([2]; pre-emergence, 480 h, PRE-emergence, rate 250 g/ha, visual score 20 DAA (100%=total damage, 0%=no damage), read-out: Pre-emergence herbicidal activity (percentage phytotoxicity) ALOMY PRE): 90%
C=C(C)CNC(=O)CC1CC(=O)C(c2c(C)cccc2CC)C1=O (stereo not drawn) [Compound B152] | – | – | – | – | – | – | – | – | – | – | – | – | – | – | – | – | pest or weed control at 250 g/ha (Avena fatua (AVEFA); post-emergence, 360 h, 250 g/ha, post-emergence, 15 DAA, visual assessment (100%=total damage, 0%=no damage), read-out: Post-emergence herbicidal activity (percentage phytotoxicity) AVEFA POST): 90%; pest or weed control at 250 g/ha (Avena fatua (AVEFA); pre-emergence, 480 h, 250 g/ha, pre-emergence, 20 DAA, visual assessment (100%=total damage, 0%=no damage), read-out: Pre-emergence herbicidal activity (percentage phytotoxicity) AVEFA PRE): 50%; pest or weed control at 250 g/ha ([1]; post-emergence, 360 h, 250 g/ha, post-emergence, 15 DAA, visual assessment (100%=total damage, 0%=no damage), read-out: Post-emergence herbicidal activity (percentage phytotoxicity) ECHCG POST): 100%; pest or weed control at 250 g/ha ([1]; pre-emergence, 480 h, 250 g/ha, pre-emergence, 20 DAA, visual assessment (100%=total damage, 0%=no damage), read-out: Pre-emergence herbicidal activity (percentage phytotoxicity) ECHCG PRE): 100%; pest or weed control at 250 g/ha (Lolium perenne (LOLPE); post-emergence, 360 h, 250 g/ha, post-emergence, 15 DAA, visual assessment (100%=total damage, 0%=no damage), read-out: Post-emergence herbicidal activity (percentage phytotoxicity) LOLPE POST): 90%; pest or weed control at 250 g/ha (Lolium perenne (LOLPE); pre-emergence, 480 h, 250 g/ha, pre-emergence, 20 DAA, visual assessment (100%=total damage, 0%=no damage), read-out: Pre-emergence herbicidal activity (percentage phytotoxicity) LOLPE PRE): 100%; pest or weed control at 250 g/ha ([2]; post-emergence, 360 h, 250 g/ha, post-emergence, 15 DAA, visual assessment (100%=total damage, 0%=no damage), read-out: Post-emergence herbicidal activity (percentage phytotoxicity) ALOMY POST): 100%; pest or weed control at 250 g/ha ([2]; pre-emergence, 480 h, 250 g/ha, pre-emergence, 20 DAA, visual assessment (100%=total damage, 0%=no damage), read-out: Pre-emergence herbicidal activity (percentage phytotoxicity) ALOMY PRE): 100%
Cc1cc(C)c(C2C(=O)CC(CC(=O)N3CCCC3)C2=O)c(C)c1 (stereo not drawn) [Compound A162] | – | – | – | – | – | – | – | – | 90 | 70 | 90 | 100 | 100 | 100 | 90 | 70 | –
